This passage reports IC50 results from patent publication US8859535B2, “Hydroxy substituted isoquinolinone derivatives” (Novartis AG, priority 2011, dated 2014).

Holding throughout (format): binding
Assay [1] concerns the target T1, human MDM4 protein (amino acids 2-185) (Homo sapiens, UniProt O15151).
T1 construct: human MDM4 protein (amino acids 2-185); made in house
T1 sequence (O15151 2-185): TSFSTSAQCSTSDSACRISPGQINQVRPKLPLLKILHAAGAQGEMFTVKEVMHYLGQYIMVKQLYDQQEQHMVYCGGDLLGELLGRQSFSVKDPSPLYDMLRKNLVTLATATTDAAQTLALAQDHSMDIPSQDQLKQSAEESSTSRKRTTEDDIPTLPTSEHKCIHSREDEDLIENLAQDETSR
Put plainly: p53-MDM4 TR-FRET assay (p53-MDM4 Assay 1). The settings on record: 2.5 nM MDM4-biotinylated, 10 nM Cy5-p53 peptide; read-out: IC50 (μM) of p53-Hdm4 inhibition (TR-FRET) Assay 1. In outline: (§1)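 C-terminally biotinylated MDM2 (aa 2-188, 1.25 nM) or MDM4 (aa 2-185, 2.5 nM) with Eu-streptavidin (0.625 nM), 15 min preincubation, then 10 nM Cy5-p53 peptide (aa18-26), 15 min room temperature; TR-FRET 665/620 nm ratio, IC50 by curve fit. Modified MDM2 Assay 2 uses 0.1 nM MDM2 and 0.1 nM Eu-streptavidin.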

The target in assay [2] is T2, human MDM2 protein (amino acids 2-188) (Homo sapiens, UniProt Q00987).
T2 construct: human MDM2 protein (amino acids 2-188); made in house
T2 sequence (Q00987 2-188): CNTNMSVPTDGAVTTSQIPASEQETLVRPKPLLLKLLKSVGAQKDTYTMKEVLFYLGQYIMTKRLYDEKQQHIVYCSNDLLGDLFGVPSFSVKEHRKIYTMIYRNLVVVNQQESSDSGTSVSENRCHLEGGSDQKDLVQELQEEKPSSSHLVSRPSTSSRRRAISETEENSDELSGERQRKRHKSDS
Description: p53-MDM2 TR-FRET assay, modified (p53-MDM2 Assay 2). The settings on record: 0.1 nM MDM2, 0.1 nM Europium labeled streptavidin; read-out: IC50 (nM) of p53-Hdm2 inhibition (TR-FRET) Assay 2. How it is done: Time Resolved Fluorescence Energy Transfer (TR-FRET) Assay
The inhibition of p53-MDM2 and p53-MDM4 interactions is measured by time resolved fluorescence energy transfer (TR-FRET). Fluorescence energy transfer (or Foerster resonance energy transfer) describes an energy transfer between donor and acceptor fluorescent molecules. For this assay, human MDM2 protein (amino acids 2-188) and human MDM4 protein (amino acids 2-185), tagged with a C-terminal biotin moiety, are used in combination with a Europium labeled streptavidin (Perkin Elmer, Inc., Waltham, Mass., USA) serving as the donor fluorophore. The p53 derived, Cy5 labeled peptide Cy5-TFSDLWKLL (p53 aa18-26) is the energy acceptor. Upon excitation of the donor molecule at 340 nm, binding interaction between MDM2 or MDM4 and the p53 peptide induces energy transfer and enhanced response at the acceptor emission wavelength at 665 nm. Disruption of the formation of the p53-MDM2 or p53-MDM4 complex due to an inhibitor molecule binding to the p53 binding site of MDM2 or MDM4 results in increased donor emission at 620 nm. The ratiometric FRET assay readout is calculated from the raw data of the two distinct fluorescence signals measured in time resolved mode (fluorescence 665 nm/fluorescence 620 nm×1000).
After addition of 1.25 nM MDM2-biotinylated or 2.5 nM MDM4-biotinylated (internal preparations), and 0.625 nM Europium labeled streptavidin (Perkin Elmer), the solution is pre-incubated for 15 minutes at room temperature, then 10 nM Cy5-p53 peptide (internal preparation) is added before an incubation at room temperature for 15 minutes prior to reading the plate. For measurement of samples, a Victor II microplate reader (Perkin Elmer) is used with the following settings: Excitation 340 nm, Emission Donor 620 nm and Emission Acceptor 665 nm. IC50 values are calculated by curve fitting using XLfit. If not specified, reagents are purchased from Sigma-Aldrich Chemie GmBH, Buchs, Switzerland.
This assay was used to evaluate compounds displaying inhibition of p53-MDM2 interaction and p53-MDM4 interaction at IC50s of 0.005 to 50 μM (p53-MDM2 Assay 1 and p53-MDM4 Assay 1, respectively). For selected compounds displaying IC50s between […] on MDM2, a slightly modified assay is used with the following adaptations: 0.1 nM MDM2, 0.1 nM Europium labeled streptavidin and Tecan genios Pro is used as a microplate reader for the fluorescence measurements (p53-MDM2 Assay 2).

Assay [3] deals with T2, human MDM2 protein (amino acids 2-188). Description: p53-MDM2 TR-FRET assay (p53-MDM2 Assay 1). As to conditions: 1.25 nM MDM2-biotinylated, 10 nM Cy5-p53 peptide; read-out: IC50 (μM) of p53-Hdm2 inhibition (TR-FRET) Assay 1. In outline:
as §1

For orientation: IC50 means the concentration needed to halve the response being measured. On to `COc1cc2c(cc1OC(C)C)[C@H](c1ccc(Cl)cc1)N(c1ccc(C(C)(O)C3CC4CCCC(C3)N4)cc1)C(=O)C2` (stereo partly drawn) [Example 116, (S)-2-{4-[1-(9-Aza-bicyclo[3.3.1]non-3-yl)-1-hydroxy-ethyl]-phenyl}-1-(4-chloro-phenyl)-7-isopropoxy-6-methoxy-1,4-dihydro-2H-isoquinolin-3-one], for which the IC50 stood at 3.93 µM in assay [1], 3.4 nM in assay [2] and 0.0036 µM in assay [3].

With `COc1cc2c(cc1OC(C)C)[C@H](c1ccc(Cl)cc1)N(c1ccc(C(C)(O)C3CC4CCC(C3)N4C3COC3)cc1)C(=O)C2` (stereo partly drawn) [Example 115, (S)-1-(4-Chloro-phenyl)-2-{4-[1-hydroxy-1-(8-oxetan-3-yl-8-aza-bicyclo[3.2.1]oct-3-yl)-ethyl]-phenyl}-7-isopropoxy-6-methoxy-1,4-dihydro-2H-isoquinolin-3-one], the IC50 in assay [1] was determined as 5.39 µM; in assay [2], 5.11 nM; in assay [3] it was 0.0051 µM.

Consider `COc1cc2c(cc1OC(C)C)[C@H](c1ccc(Cl)cc1)N(c1ccc(C(C)(O)C3CCN(C(=O)F)CC3)cc1)C(=O)C2` (mixture of isomers) [Example 90, 4-(1-{4-[(S)-1-(4-Chloro-phenyl)-7-isopropoxy-6-methoxy-3-oxo-3,4-dihydro-1H-isoquinolin-2-yl]-phenyl}-1-hydroxy-ethyl)-piperidine-1-carbonyl fluoride], for which the results for the IC50 in assay [1], in assay [2] and in assay [3] were 2.31 µM, 1.38 nM and 0.0026 µM, respectively.

For the compound `COc1cc2c(cc1OC(C)C)[C@H](c1ccc(Cl)cc1)N(c1ccc(C(C)(O)C3CC4CCC(C3)N4C(=O)N(C)C)cc1)C(=O)C2` (stereo partly drawn) [Example 108, 3-(1-{4-[(S)-1-(4-Chloro-phenyl)-7-isopropoxy-6-methoxy-3-oxo-3,4-dihydro-1H-isoquinolin-2-yl]-phenyl}-1-hydroxy-ethyl)-8-aza-bicyclo[3.2.1]octane-8-carboxylic acid dimethylamide], the results for the IC50 in assay [1], in assay [2] and in assay [3] were 1.99 µM, 2.07 nM and 0.0027 µM, respectively.

In the case of `COc1cc2c(cc1OC(C)C)[C@H](c1ccc(Cl)cc1)N(c1ccc(C(C)(O)C3CC4CCC(C3)N4S(C)(=O)=O)cc1)C(=O)C2` (stereo partly drawn) [Example 107, (S)-1-(4-Chloro-phenyl)-2-{4-[1-hydroxy-1-(8-methanesulfonyl-8-aza-bicyclo[3.2.1]oct-3-yl)-ethyl]-phenyl}-7-isopropoxy-6-methoxy-1,4-dihydro-2H-isoquinolin-3-one], the IC50 in assay [1] worked out at 2.48 µM; in assay [2], 1.55 nM; in assay [3] it was 0.0028 µM.

Consider `COc1cc2c(cc1OC(C)C)[C@H](c1ccc(Cl)cc1)N(c1ccc([C@@](C)(O)C3CC(C)(C)OC(C)(C)C3)cc1)C(=O)C2` (single isomer, unassigned) [Example 163], for which the IC50 in assay [2] came out at 1.26 nM.

For the compound `COc1cc2c(cc1OC(C)C)[C@H](c1ccc(Cl)cc1)N(c1ccc([C@@](C)(O)C3CCN(CCO)CC3)cc1)C(=O)C2` (single isomer, unassigned) [Example 131], the IC50 in assay [2] is 1.42 nM.

With `COc1cc2c(cc1OC(C)C)[C@H](c1ccc(Cl)cc1)N(c1ccc(C(C)(O)[C@H]3CCCN(C=O)C3)cc1)C(=O)C2` (stereo partly drawn) [Example 182, (S)-3-(1-{4-[(S)-1-(4-Chloro-phenyl)-7-isopropoxy-6-methoxy-3-oxo-3,4-dihydro-1H-isoquinolin-2-yl]-phenyl}-1-hydroxy-ethyl)-piperidine-1-carbaldehyde], in assay [2], the IC50 turned out to be 0.329 nM.

On to `COc1cc2c(cc1OC(C)C)[C@H](c1ccc(Cl)cc1)N(c1ccc([C@@](C)(O)C3CCN(C=O)CC3)cc1)C(=O)C2` (single isomer, unassigned) [Example 125], for which the IC50 in assay [2] turned out to be 0.746 nM.

Take `[2H]C([2H])([2H])Oc1cc2c(cc1OC(C)C)[C@H](c1ccc(Cl)cc1)N(c1ccc(C(C)(O)C3CCS(=O)(=O)CC3)cc1)C(=O)C2` (mixture of isomers) [Example 150, (S)-1-(4-Chloro-phenyl)-2-{4-[1-(1,1-dioxo-hexahydro-1-thiopyran-4-yl)-1-hydroxy-ethyl]-phenyl}-7-isopropoxy-6-d^3-methoxy-1,4-dihydro-2H-isoquinolin-3-one]: the IC50 in assay [2] was determined as 4.43 nM.

As to `COc1cc2c(cc1OC(C)C)[C@H](c1ccc(Cl)cc1)N(c1ccc([C@@](C)(O)C3CCN(C4COC4)CC3)cc1)C(=O)C2` (single isomer, unassigned) [Example 127], the 50% inhibitory concentration (IC50) in assay [2] is 0.935 nM.

`COc1cc2c(cc1OC(C)C)[C@H](c1ccc(Cl)cc1)N(c1ccc(C(C)(O)C3C4CNCC3COC4)cc1)C(=O)C2` (stereo partly drawn) [Example 156, (S)-1-(4-Chloro-phenyl)-2-{4-[1-hydroxy-1-(3-oxa-7-aza-bicyclo[3.3.1]non-9-yl)-ethyl]-phenyl}-7-isopropoxy-6-methoxy-1,4-dihydro-2H-isoquinolin-3-one]: the IC50 in assay [2] amounted to 12.6 nM.

For `COc1cc2c(cc1OC(C)C)[C@H](c1ccc(Cl)cc1)N(c1ccc([C@](C)(O)C34CCC(CC3)C4)cc1)C(=O)C2` (single isomer, unassigned) [Example 140], in assay [2], the IC50 was 305 nM.

For `COc1cc2c(cc1OC(C)C)[C@H](c1ccc(Cl)cc1)N(c1ccc([C@](C)(O)C3CC4CCCC(C3)S4(=O)=O)cc1)C(=O)C2` (stereo partly drawn) [Example 176, (S)-1-(4-Chloro-phenyl)-2-{4-[(R)-1-(9,9-dioxo-9-thia-bicyclo[3.3.1]non-3-yl)-1-hydroxy-ethyl]-phenyl}-7-isopropoxy-6-methoxy-1,4-dihydro-2H-isoquinolin-3-one], the IC50 in assay [2] worked out at 98 nM.

As to `CC(C)Oc1cc2c(cc1OC(F)F)CC(=O)N(c1ccc(C(C)(O)C3CCOCC3)cc1)C2c1ccc(Cl)cc1` (stereo not drawn) [Example 165, 1-(4-Chloro-phenyl)-6-difluoromethoxy-2-{4-[1-hydroxy-1-(tetrahydro-pyran-4-yl)-ethyl]-phenyl}-7-isopropoxy-1,4-dihydro-2H-isoquinolin-3-one], the IC50 in assay [2] came to 12 nM.

As to `COc1cc2c(cc1OC(C)C)[C@H](c1ccc(Cl)cc1)N(c1ccc(C(C)(O)C3C4COCC3CN(C=O)C4)cc1)C(=O)C2` (stereo partly drawn) [Example 157, 9-(1-{4-[(S)-1-(4-Chloro-phenyl)-7-isopropoxy-6-methoxy-3-oxo-3,4-dihydro-1H-isoquinolin-2-yl]-phenyl}-1-hydroxy-ethyl)-3-oxa-7-aza-bicyclo[3.3.1]nonane-7-carbaldehyde], the IC50 in assay [2] was 4.89 nM.

Regarding `COc1cc2c(cc1OC(C)C)[C@H](c1ccc(Cl)cc1)N(c1ccc([C@@](C)(O)C3CC4CCC(C3)O4)cc1)C(=O)C2` (single isomer, unassigned) [Example 159], the IC50 in assay [2] was determined as 0.894 nM.

Take `COc1cc2c(cc1OC(C)C)[C@H](c1ccc(Cl)cc1)N(c1ccc([C@](C)(O)C3CCN(C(=O)CO)CC3)cc1)C(=O)C2` (single isomer, unassigned) [Example 134]: in assay [2], the IC50 came out at 141 nM.

As to `COc1cc2c(cc1OC(C)C)[C@H](c1ccc(Cl)cc1)N(c1ccc(C(C)(O)C3CC4CCCC(C3)N4C(=O)COC(C)=O)cc1)C(=O)C2` (stereo partly drawn) [Example 121, Acetic acid 2-[3-(1-{4-[(S)-1-(4-chloro-phenyl)-7-isopropoxy-6-methoxy-3-oxo-3,4-dihydro-1H-isoquinolin-2-yl]-phenyl}-1-hydroxy-ethyl)-9-aza-bicyclo[3.3.1]non-9-yl]-2-oxo-ethyl ester], the IC50 in assay [2] was found to be 3.44 nM.

As for `[2H]C([2H])([2H])Oc1cc2c(cc1OC(C)C)[C@H](c1ccc(Cl)cc1)N(c1ccc([C@](C)(O)C3CCN(C=O)CC3)cc1)C(=O)C2` (single isomer, unassigned) [Example 154], the IC50 in assay [2] was 78.7 nM.
